pIC50: −log10 of the molar value. Where two headings read alike, the source gives them in different places.
Assays:
OATP1B3 = biological target: T1, OATP1B3 (Homo sapiens, UniProt Q9NPD5); test: OATP1B3-mediated pyranine uptake in A431 cells overexpressing OATP1B3; format: cell-based
T1 construct: host or cells: A431
T1 sequence (Q9NPD5 1-702): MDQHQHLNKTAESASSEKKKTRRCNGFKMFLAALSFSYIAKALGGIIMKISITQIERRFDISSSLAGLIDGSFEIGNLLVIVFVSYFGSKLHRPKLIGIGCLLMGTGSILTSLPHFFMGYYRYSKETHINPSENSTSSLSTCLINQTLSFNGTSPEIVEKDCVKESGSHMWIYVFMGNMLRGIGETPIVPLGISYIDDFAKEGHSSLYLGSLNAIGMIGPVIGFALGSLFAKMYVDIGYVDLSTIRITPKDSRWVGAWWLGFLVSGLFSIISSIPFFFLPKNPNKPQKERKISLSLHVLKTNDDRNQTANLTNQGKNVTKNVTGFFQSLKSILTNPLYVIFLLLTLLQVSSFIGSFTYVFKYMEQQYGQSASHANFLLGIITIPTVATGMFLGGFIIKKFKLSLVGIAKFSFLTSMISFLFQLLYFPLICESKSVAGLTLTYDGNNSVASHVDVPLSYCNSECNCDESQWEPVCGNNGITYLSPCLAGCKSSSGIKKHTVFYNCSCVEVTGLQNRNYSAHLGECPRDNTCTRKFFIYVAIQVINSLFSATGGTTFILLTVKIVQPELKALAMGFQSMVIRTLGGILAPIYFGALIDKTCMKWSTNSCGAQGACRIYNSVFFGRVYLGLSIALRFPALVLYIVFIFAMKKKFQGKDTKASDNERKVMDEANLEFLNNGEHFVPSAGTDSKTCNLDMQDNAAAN
Procedure: A431 cells overexpressing human OATPs, 1A2 (BC042452, HsCD00333163), 1B1 (Gene ID: AB026257), 1B3 (BC141525, HsCD00348132) or 2B1 (BC041095.1, HsCD00378878), or their mock transfected controls, were generated as previously described. Cells were cultured in Dulbecco’s Modified Eagle Medium (DMEM; Thermo Fischer Scientific, Waltham, MA, USA) supplemented with 10% fetal bovine serum, 2 mM L-glutamine, 100 units/mL penicillin and 100 µg/mL streptomycin, at 37 °C with 5% CO2.
Briefly, A431 cell overexpressing OATPs, 1A2, 1B1, 1B3 or 2B1, or their mock transfected controls, were seeded on 96-well plates in a density of 8x10^4 cells/well in 200 μL DMEM one day prior to the transport measurements. […] Thereafter, cells were incubated at 37°C for 15 min (OATP1B1 and OATP2B1), 10 min (OATP1A2), or 30 min (OATP1B3). The reactions were stopped by removing the supernatants, then the cells were washed three times with ice-cold PBS. […] OATP-dependent transport was calculated by extracting fluorescence measured in mock transfected cells. Transport activity was calculated based on the fluorescence signal in the absence (100%) of flavonoids. Experiments were repeated at least in three biological replicates. IC50 values were calculated by Hill1 fit, using the Origin Pro8.6 software ([…]).

CYP2D6 = biological target: T2, CYP2D6 (Homo sapiens, UniProt P10635); test: CYP2D6-catalyzed dextromethorphan O-demethylation (CypExpress kit, HPLC); format: biochemical; settings: up to 30 μM flavonoid, substrate 5 µM dextromethorphan
T2 construct: purchased Sigma-Aldrich
Procedure: Inhibition of CYP2C19 [47], 3A4 [48], and 2D6 [49] by Q and its conjugates was tested based on our previously reported methods, without modifications.
S-mephenytoin and 4-hydroxymephenytoin (CYP2C19 assay), testosterone and 6β-hydroxytestosterone (CYP3A4 assay), as well as dextromethorphan and dextrorphan (CYP2D6 assay) were quantified using the previously described methods, with minor modifications.
In the CYP2D6 assay, samples were driven through a guard column (Security Guard C8, 4.0 × 3.0 mm; Phenomenex, Torrance, CA, USA) linked to an analytical column (Mediterranea Sea8 C8 150 × 4.6 mm; 5 µm; Teknokroma, Barcelona, Spain). The isocratic elution was performed with 1 mL/min flow rate at room temperature, the mobile phase contained acetonitrile and 6.9 mM sodium-acetate buffer (pH 4.0) (31:69 v/v%). Dextromethorphan and dextrorphan were detected at 280 nm.

[1] = 20 μM pyranine, 30 min, A431-OATP1B3 cells, read-out: IC50 for OATP1B3

T2 sequence (P10635 whole entry): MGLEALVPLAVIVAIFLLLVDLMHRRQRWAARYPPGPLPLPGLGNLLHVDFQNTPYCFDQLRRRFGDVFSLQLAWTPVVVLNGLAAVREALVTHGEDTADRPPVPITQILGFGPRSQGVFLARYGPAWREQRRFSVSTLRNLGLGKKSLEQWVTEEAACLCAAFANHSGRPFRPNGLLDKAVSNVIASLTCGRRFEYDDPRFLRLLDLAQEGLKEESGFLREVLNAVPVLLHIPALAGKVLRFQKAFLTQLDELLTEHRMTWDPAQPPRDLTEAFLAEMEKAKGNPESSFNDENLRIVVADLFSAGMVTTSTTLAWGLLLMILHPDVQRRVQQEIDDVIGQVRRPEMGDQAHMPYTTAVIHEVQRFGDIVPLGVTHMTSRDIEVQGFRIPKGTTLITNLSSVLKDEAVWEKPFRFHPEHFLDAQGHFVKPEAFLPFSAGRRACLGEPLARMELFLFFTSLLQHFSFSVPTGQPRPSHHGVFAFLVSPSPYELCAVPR

Structure (SMILES)	concentration causing statistically significant (p < 0.01) inhibition, OATP1B3 (OATP1B3; 20 μM pyranine, 30 min)	pIC50 (OATP1B3; [1])	inhibition of CYP2D6 activity (CYP2D6)	pIC50 (OATP1B3)
COc1cc(-c2oc3cc(O)cc(O)c3c(=O)c2OC2OC(C(=O)O)C(O)C(O)C2O)ccc1O (stereo not drawn) [I3G, isorhamnetin-3-glucuronide]	6.3 µM	5.02	did not affect	
COc1cc(-c2oc3cc(O)cc(O)c3c(=O)c2O)ccc1O [IR, isorhamnetin]	3.1 µM		did not affect	5.51
O=C(O)C1OC(Oc2c(-c3ccc(O)c(O)c3)oc3cc(O)cc(O)c3c2=O)C(O)C(O)C1O (stereo not drawn) [Q3G, quercetin-3-glucuronide]	3.1 µM	5.24	did not affect	
O=c1c(O)c(-c2ccc(O)c(OS(=O)(=O)O)c2)oc2cc(O)cc(O)c12 [Q3′S, quercetin-3′-sulfate]	1.3 µM	5.60	did not affect	
O=c1c(O)c(-c2ccc(O)c(O)c2)oc2cc(O)cc(O)c12 [Q, quercetin]	2.5 µM	5.49	did not affect	

— paper PMC7468908 (Nutrients, 2020)
